From patent publication US7659249B2, “Membrane-permeable NFAT inhibitory peptide” (Japan Science and Technology Agency, priority 2002, dated 2010) come the findings set out here.

Residues, ends and D or L forms follow the SMILES beside them.

Data set [1] concerns IL-2 gene. As to the kind of experiment: transcription of IL-2 gene in Jurkat cells stimulated with PMA and ionomycin, real-time quantitative RT-PCR. It is filed as cell-based, human. Particulars: 1 μM 11R-VEET.
Experimental: Subsequently, 100 μl of RPMI containing 2 μM of phorbol 12-myristate 13-acetate (PMA) (available from Sigma-Aldrich Co.) and 40 μM of ionomycin (available from Sigma-Aldrich Co.) was added and culture was continued for 12 more hours. Then, the cells were recovered and using the obtained cells, the transcription amount of IL-2 gene was measured by the following real-time quantitative RT-PCR. In real-time quantitative RT-PCR, GAPDH, which is known as a housekeeping gene, was used as the inner standard substance.
RNeasy Mini Kit (available from QIAGEN K.K.) was used according to protocol and total RNA was extracted from the cells. Using the obtained total RNA, reverse transcription reaction was conducted by incubation at 22° C. for 10 minutes and then at 42° C. for 20 minutes.
Thereafter, using Light Cycler-Fast Start DNA Master SYBR Green I Kit (available from Roche Molecular Biochemicals), 20 μl of a mixed reaction solution ( 1/10 of the amount of the transcription product, 4 mM of MgCl2, 4 kinds of primers: 0.5 μM respectively, 2 μl of 10×Light Cycler-Fast Start DNA Master SYBR Green I) was prepared for amplification reaction. As the primer for human IL-2, the primer included in Competitive Quantitative RT-PCR Kit (available from Funakoshi Co., Ltd.) was used. […]
Data set [2] relates to lymphocytes. As to the kind of experiment: mixed lymphocyte test, [3H]TdR incorporation. The format is cell-based, mouse. The conditions noted are these: 1 μM 11R-VEET.
Experimental: Spleen cells were retrieved from a 6 to 8 week old C3H/HeN mouse and a 6 to 8 week old BALB/c mouse H-2d (available from Shimizu Laboratory Supplies Co., Ltd.). The BALB/c spleen cells were treated with mitomycin C (available from Kyowa Hakko Kogyo Co., Ltd.) and used as stimulating cells.
Subsequently, 5×10^5 of mixed cells obtained by mixing the above stimulating cells and the spleen cells derived from a C3H/HeN mouse in a ratio of 1:5 were added in each well and cultured for 90 hours in a carbon dioxide culture device set to 37° C. and carbon dioxide concentration of 5%. As control, the mixed cells were added to wells containing only a medium and cultured in the same manner.
Then, ^3H-methyl-thymidine (hereinafter referred to as [^3H]TdR, available from Amersham Pharmacia Biotech K.K.) of 0.5 μCi/well was added and culture was conducted for 6 hours. Thereafter, the cells were placed on filter paper having a diameter of 1 cm and the radioactivity of [^3H]TdR incorporated into the cells was measured by a beta counter (made by Beckman Coulter K.K.).
Data set [3] has as its system lymphocytes. Put plainly: mixed lymphocyte test using spleen cells from treated mouse, [3H]TdR incorporation. The conditions noted are these: printed: 1 μM of 11R-VEET; method b87: 10 mg/kg intraperitoneal. The format is in vivo, C3H/HeN mouse. The method, then:
Thereafter, the cells were placed on filter paper having a diameter of 1 cm and the radioactivity of [^3H]TdR incorporated into the cells was measured by a beta counter.

For data set [4], the system named is transplanted beta cells. As to the kind of experiment: beta cell transplant in diabetic model mouse, survival of transplant by Kaplan-Meier. Particulars: 10 mg/kg intraperitoneally once a day after transplant, BALB/c donor, C3H/HeN diabetic recipient. It is filed as in vivo.
Experimental: For the transplant, a 6 week old BALB/c mouse was used as the donor and a 6 week old C3H/HeN mouse was used as the recipient.
A diabetic model mouse was prepared by intraperitoneally injecting 220 mg/kg of streptozocin (available from Sigma-Aldrich Japan K.K.) to a C3H/HeN mouse. 6 days after the streptozocin injection, the mouse in which the glucose level exceeded 350 mg/dl was determined as being hyperglycemic.
Meanwhile, the spleen of the BALB/c mouse was taken out and after subjecting to discontinuous Ficoll density gradient centrifugation, beta cells were isolated by normal collagenase digestion.
About 500 of the isolated beta cells were transplanted under the capusula of the left kidney of the above diabetic model mouse. […] The glycemia was measured and when the level thereof exceeded 200 mg/dl for 2 consecutive days, transplant rejection was considered to have occurred.
Data set [5] deals with βTC6 cells. As to the kind of experiment: insulin secretion of βTC6 cells (Mouse Insulin ELISA). The format is cell-based. Particulars: 11R-VEET 10, 100, 1000 or 10000 nM, 96 hours. The method, then: The medium was replaced with a fresh medium containing […] every 24 hours. After 96 hours, the medium was replaced with a fresh medium. Culture was conducted for 1 more hour and the culture supernatant was collected. For control, βTC6 cells were cultured in the same manner, except that a medium without […] was used. Subsequently, using the collected supernatant, the secreted insulin was analyzed using Mouse Insulin ELISA (TMB) Kit (available from Shibayagi Co., Ltd.) according to protocol.

The subject of data set [6] is βTC6 cells. As to the kind of experiment: proliferation of βTC6 cells, [3H]TdR incorporation. The format is cell-based. The conditions noted are these: 11R-VEET 10, 100, 1000 or 10000 nM. The method, then: The medium was replaced with a fresh medium containing […] every 24 hours. Subsequently, [^3H]TdR of 1 μCi/well was added and culture was conducted for 8 more hours. For control, βTC6 cells were cultured in the same manner except that a medium without […] was used. Thereafter, the cells were placed on filter paper having a diameter of 1 cm and the radioactivity of [^3H]TdR incorporated into the cells was measured by a beta counter.

Data set [7] has as its system IL-2 gene (transcription). As to the kind of experiment: half-life in T cells based on inhibitory activity to IL-2 transcription (time course in Jurkat cells). Particulars: human. The method, then:
Subsequently, 100 μl of RPMI containing 2 μM of PMA and 40 μM of ionomycin was added and culture was conducted further for 12 hours, 17 hours, 23 hours, 35 hours or 59 hours.
Subsequently, the relative RNA amount to GAPDH was measured by conducting RT-PCR and real-time quantitative RT-PCR and analysis in the same manner as in Example 3, except that the respective obtained cells were used as samples. The time shown in FIG. 2 refers to the total culture time.
Using 1 ml of 10% fetal bovine serum-containing RPMI containing 1 μM of FK 506, 1×10^5 Jurkat cells were cultured for 1 hour in a carbon dioxide culture device set to 37° C. and carbon dioxide concentration of 5%. Subsequently, 100 μl of RPMI containing 2 μM of PMA and 40 μM of ionomycin was added and culture was conducted further for 12 hours, 17 hours, 23 hours, 35 hours or 59 hours. Thereafter, RT-PCR and real-time quantitative RT-PCR were conducted in the same manner as in Example 3, except that the obtained culture cells were used.

Consider “11R-VEET: peptide comprising 11 consecutive arginine residues and VEET (MAGPPHIVEETGPHVI) with 3 glycine residues; SEQ ID NO. 4; negative control (RRRRRRRRRRRGGGMAGPPHIVEETGPHVI)”, for which the “effect on transcription level of IL-2 gene” value in data set [1] is “did not affect”. Further, in data set [2], the “effect on proliferation of lymphocytes” value is listed as “not affected”. Also, the “effect on proliferation of lymphocytes (cells from treated mouse)” value in data set [3] is “not affected”. Also, the “survival rate of transplanted beta cells compared to control” value in data set [4] was “did not affect”. Further, in data set [5], the “insulin secretion amount of βTC6 cells” value was “unaffected”. Moreover, the “inhibitory effect to proliferation of βTC6 cells” value in data set [6] was “did not exhibit an inhibitory effect”.

In the case of `CC[C@H](C)[C@H](NC(=O)[C@@H](NC(=O)[C@@H]1CCCN1C(=O)[C@H](Cc1c[nH]cn1)NC(=O)[C@@H]1CCCN1C(=O)CNC(=O)[C@H](C)NC(=O)[C@H](CCSC)NC(=O)CNC(=O)CNC(=O)CNC(=O)[C@H](CCCNC(=N)N)NC(=O)[C@H](CCCNC(=N)N)NC(=O)[C@H](CCCNC(=N)N)NC(=O)[C@H](CCCNC(=N)N)NC(=O)[C@H](CCCNC(=N)N)NC(=O)[C@H](CCCNC(=N)N)NC(=O)[C@H](CCCNC(=N)N)NC(=O)[C@H](CCCNC(=N)N)NC(=O)[C@H](CCCNC(=N)N)NC(=O)[C@H](CCCNC(=N)N)NC(=O)[C@@H](N)CCCNC(=N)N)C(C)C)C(=O)N[C@H](C(=O)N[C@H](C(=O)N[C@H](C(=O)NCC(=O)N1CCC[C@H]1C(=O)N[C@@H](Cc1c[nH]cn1)C(=O)N[C@@H](CCC(=O)O)C(=O)N[C@@H](CCC(=O)O)C(=O)O)[C@@H](C)O)[C@@H](C)CC)C(C)C` [11R-VIVIT] (H-RRRRRRRRRRRGGGMAGPHPVIVITGPHEE-OH; N-terminus and C-terminus assumed), the half-life (commonly the time in which the quantity being followed falls by half) at 1 μM in data set [7] was around 30 h.
